Question: With Nc1cccc(C(=O)O)c1 as the compound, how does the solubility (mole fraction) (in 1,4-dioxane, 288.15 K) read?
Answer: 0.0319

Question: What about the solubility (mole fraction) (in 1,4-dioxane, 293.15 K) of the same compound?
Answer: 0.035

Question: And the solubility (mole fraction) (in 1,4-dioxane, 298.15 K)?
Answer: 0.0394

Question: What about the solubility (mole fraction) (in 1,4-dioxane, 303.15 K) of the same compound?
Answer: 0.042

Question: And the solubility (mole fraction) (in 1,4-dioxane, 308.15 K)?
Answer: 0.0469

Question: What about the solubility (mole fraction) (in 1,4-dioxane, 313.15 K) of the same compound?
Answer: 0.0549

Question: What about the solubility (mole fraction) (in 1,4-dioxane, 318.15 K) of the same compound?
Answer: 0.0627

Question: What about the solubility (mole fraction) (in 1,4-dioxane, 323.15 K) of the same compound?
Answer: 0.0709

Question: And the solubility (mole fraction) (in acetone, 283.15 K)?
Answer: 0.0289

Question: What about the solubility (mole fraction) (in acetone, 288.15 K) of the same compound?
Answer: 0.0295

Question: And the solubility (mole fraction) (in acetone, 293.15 K)?
Answer: 0.0304

Question: And the solubility (mole fraction) (in acetone, 298.15 K)?
Answer: 0.0325

Question: And the solubility (mole fraction) (in acetone, 303.15 K)?
Answer: 0.0375

Question: And the solubility (mole fraction) (in acetone, 308.15 K)?
Answer: 0.0414

Question: And the solubility (mole fraction) (in acetone, 313.15 K)?
Answer: 0.0455

Question: What about the solubility (mole fraction) (in acetone, 318.15 K) of the same compound?
Answer: 0.052

Question: And the solubility (mole fraction) (in acetone, 323.15 K)?
Answer: 0.0601

Question: And the solubility (mole fraction) (in acetonitrile, 283.15 K)?
Answer: 0.00192

Question: And the solubility (mole fraction) (in acetonitrile, 288.15 K)?
Answer: 0.00225

Question: What about the solubility (mole fraction) (in acetonitrile, 293.15 K) of the same compound?
Answer: 0.00264

Question: And the solubility (mole fraction) (in acetonitrile, 298.15 K)?
Answer: 0.00313

Question: And the solubility (mole fraction) (in acetonitrile, 303.15 K)?
Answer: 0.00358

Question: What about the solubility (mole fraction) (in acetonitrile, 308.15 K) of the same compound?
Answer: 0.00452

Question: And the solubility (mole fraction) (in acetonitrile, 313.15 K)?
Answer: 0.00561

Question: And the solubility (mole fraction) (in acetonitrile, 318.15 K)?
Answer: 0.00664

Question: What about the solubility (mole fraction) (in acetonitrile, 323.15 K) of the same compound?
Answer: 0.00765

Question: What about the solubility (mole fraction) (in ethanol, 283.15 K) of the same compound?
Answer: 0.00821

Question: And the solubility (mole fraction) (in ethanol, 288.15 K)?
Answer: 0.00955

Question: And the solubility (mole fraction) (in ethanol, 293.15 K)?
Answer: 0.0107

Question: And the solubility (mole fraction) (in ethanol, 298.15 K)?
Answer: 0.0117

Question: And the solubility (mole fraction) (in ethanol, 303.15 K)?
Answer: 0.0137

Question: What about the solubility (mole fraction) (in ethanol, 308.15 K) of the same compound?
Answer: 0.0154

Question: What about the solubility (mole fraction) (in ethanol, 313.15 K) of the same compound?
Answer: 0.0182

Question: What about the solubility (mole fraction) (in ethanol, 318.15 K) of the same compound?
Answer: 0.0218

Question: What about the solubility (mole fraction) (in ethanol, 323.15 K) of the same compound?
Answer: 0.0241

Question: And the solubility (mole fraction) (in isobutanol, 283.15 K)?
Answer: 0.00506

Question: And the solubility (mole fraction) (in isobutanol, 288.15 K)?
Answer: 0.00542

Question: What about the solubility (mole fraction) (in isobutanol, 293.15 K) of the same compound?
Answer: 0.00599

Question: And the solubility (mole fraction) (in isobutanol, 298.15 K)?
Answer: 0.00683

Question: And the solubility (mole fraction) (in isobutanol, 303.15 K)?
Answer: 0.00796

Question: What about the solubility (mole fraction) (in isobutanol, 308.15 K) of the same compound?
Answer: 0.00946

Question: What about the solubility (mole fraction) (in isobutanol, 313.15 K) of the same compound?
Answer: 0.0113

Question: And the solubility (mole fraction) (in isobutanol, 318.15 K)?
Answer: 0.0131

Question: And the solubility (mole fraction) (in isobutanol, 323.15 K)?
Answer: 0.0158

Question: What about the solubility (mole fraction) (in isopropanol, 283.15 K) of the same compound?
Answer: 0.00638

Question: What about the solubility (mole fraction) (in isopropanol, 288.15 K) of the same compound?
Answer: 0.00712

Question: What about the solubility (mole fraction) (in isopropanol, 293.15 K) of the same compound?
Answer: 0.00801

Question: And the solubility (mole fraction) (in isopropanol, 298.15 K)?
Answer: 0.00943

Question: What about the solubility (mole fraction) (in isopropanol, 303.15 K) of the same compound?
Answer: 0.0112

Question: And the solubility (mole fraction) (in isopropanol, 308.15 K)?
Answer: 0.0135

Question: And the solubility (mole fraction) (in isopropanol, 313.15 K)?
Answer: 0.0165

Question: And the solubility (mole fraction) (in isopropanol, 318.15 K)?
Answer: 0.0204

Question: And the solubility (mole fraction) (in isopropanol, 323.15 K)?
Answer: 0.023

Question: And the solubility (mole fraction) (in isopropyl acetate, 283.15 K)?
Answer: 0.00459

Question: What about the solubility (mole fraction) (in isopropyl acetate, 288.15 K) of the same compound?
Answer: 0.00495

Question: And the solubility (mole fraction) (in isopropyl acetate, 293.15 K)?
Answer: 0.00526

Question: And the solubility (mole fraction) (in isopropyl acetate, 298.15 K)?
Answer: 0.00591

Question: What about the solubility (mole fraction) (in isopropyl acetate, 303.15 K) of the same compound?
Answer: 0.00674

Question: And the solubility (mole fraction) (in isopropyl acetate, 308.15 K)?
Answer: 0.00765

Question: And the solubility (mole fraction) (in isopropyl acetate, 313.15 K)?
Answer: 0.00917

Question: And the solubility (mole fraction) (in isopropyl acetate, 318.15 K)?
Answer: 0.0113

Question: And the solubility (mole fraction) (in isopropyl acetate, 323.15 K)?
Answer: 0.0135

Question: What about the solubility (mole fraction) (in methanol, 283.15 K) of the same compound?
Answer: 0.012

Question: And the solubility (mole fraction) (in methanol, 288.15 K)?
Answer: 0.0128

Question: What about the solubility (mole fraction) (in methanol, 293.15 K) of the same compound?
Answer: 0.0139

Question: What about the solubility (mole fraction) (in methanol, 298.15 K) of the same compound?
Answer: 0.0145

Question: What about the solubility (mole fraction) (in methanol, 303.15 K) of the same compound?
Answer: 0.0166

Question: And the solubility (mole fraction) (in methanol, 308.15 K)?
Answer: 0.0187

Question: And the solubility (mole fraction) (in methanol, 313.15 K)?
Answer: 0.0219

Question: What about the solubility (mole fraction) (in methanol, 318.15 K) of the same compound?
Answer: 0.0254

Question: And the solubility (mole fraction) (in methanol, 323.15 K)?
Answer: 0.0296

Question: And the solubility (mole fraction) (in methyl acetate, 283.15 K)?
Answer: 0.00731

Question: And the solubility (mole fraction) (in methyl acetate, 288.15 K)?
Answer: 0.00776

Question: And the solubility (mole fraction) (in methyl acetate, 293.15 K)?
Answer: 0.00841

Question: What about the solubility (mole fraction) (in methyl acetate, 298.15 K) of the same compound?
Answer: 0.00918

Question: And the solubility (mole fraction) (in methyl acetate, 303.15 K)?
Answer: 0.0108

Question: What about the solubility (mole fraction) (in methyl acetate, 308.15 K) of the same compound?
Answer: 0.0128

Question: And the solubility (mole fraction) (in methyl acetate, 313.15 K)?
Answer: 0.0149

Question: What about the solubility (mole fraction) (in methyl acetate, 318.15 K) of the same compound?
Answer: 0.0173

Question: And the solubility (mole fraction) (in methyl acetate, 323.15 K)?
Answer: 0.0203

Question: And the solubility (mole fraction) (in n-butanol, 283.15 K)?
Answer: 0.00532

Question: What about the solubility (mole fraction) (in n-butanol, 288.15 K) of the same compound?
Answer: 0.00595

Question: What about the solubility (mole fraction) (in n-butanol, 293.15 K) of the same compound?
Answer: 0.00682

Question: And the solubility (mole fraction) (in n-butanol, 298.15 K)?
Answer: 0.00768

Question: And the solubility (mole fraction) (in n-butanol, 303.15 K)?
Answer: 0.00934

Question: And the solubility (mole fraction) (in n-butanol, 308.15 K)?
Answer: 0.0117

Question: And the solubility (mole fraction) (in n-butanol, 313.15 K)?
Answer: 0.0134

Question: And the solubility (mole fraction) (in n-butanol, 318.15 K)?
Answer: 0.0156

Question: And the solubility (mole fraction) (in n-butanol, 323.15 K)?
Answer: 0.0175

Question: What about the solubility (mole fraction) (in n-propanol, 283.15 K) of the same compound?
Answer: 0.00568

Question: What about the solubility (mole fraction) (in n-propanol, 288.15 K) of the same compound?
Answer: 0.00675

Question: What about the solubility (mole fraction) (in n-propanol, 293.15 K) of the same compound?
Answer: 0.00804

Question: What about the solubility (mole fraction) (in n-propanol, 298.15 K) of the same compound?
Answer: 0.00911

Question: What about the solubility (mole fraction) (in n-propanol, 303.15 K) of the same compound?
Answer: 0.0107

Question: What about the solubility (mole fraction) (in n-propanol, 308.15 K) of the same compound?
Answer: 0.0126

Question: And the solubility (mole fraction) (in n-propanol, 313.15 K)?
Answer: 0.014

Question: What about the solubility (mole fraction) (in n-propanol, 318.15 K) of the same compound?
Answer: 0.016

Question: And the solubility (mole fraction) (in n-propanol, 323.15 K)?
Answer: 0.019

Question: And the solubility (mole fraction) (in water, 283.15 K)?
Answer: 0.000506

Question: And the solubility (mole fraction) (in water, 288.15 K)?
Answer: 0.000628

Question: What about the solubility (mole fraction) (in water, 293.15 K) of the same compound?
Answer: 0.000725

Question: And the solubility (mole fraction) (in water, 298.15 K)?
Answer: 0.000804

Question: What about the solubility (mole fraction) (in water, 303.15 K) of the same compound?
Answer: 0.000976

Question: And the solubility (mole fraction) (in water, 308.15 K)?
Answer: 0.00119

Question: What about the solubility (mole fraction) (in water, 313.15 K) of the same compound?
Answer: 0.00135

Question: And the solubility (mole fraction) (in water, 318.15 K)?
Answer: 0.00153

Question: And the solubility (mole fraction) (in water, 323.15 K)?
Answer: 0.00184

Reference: BigSolDB 2.1
